Assay results reported in patent US4060612A, “Pharmaceutically active 2-omega-aminoalkoxydiphenyl sulfides” (Mitsubishi Chemical Industries Ltd., priority 1976, dated 1977).
Where a name gives a salt, the structure may show the parent alone. Read-outs that look alike come from different tables or passages of the source.

Experiments:
[1] = system: reserpine induced hypothermia; experiment: Antagonism of reserpine induced hypothermia in mice (antidepressant / antireserpine activity); format: in vivo; settings: for Relative Potency (antireserpine activity, Amitriptyline = 1): reserpine 5 mg/kg i.p., compounds given intraperitoneally
Experimental: (§1) Anticonvulsant activity has also been discovered in the compounds of this invention. The compounds have been tested in mice for antidepressant, sedative, anticonvulsant and anticholinergic activity. The compounds were administered intraperitoneally and the activities of the compounds were compared with those of Amitriptyline. Antidepressant activity was evaluated by antagonism of reserpine (5 mg/kg, i.p.) induced hypothermia (P. S. J. Spencer in "Antidepressant Drugs", S. Garattini and M. N. G. Duhes, ed., Excerpta Medica Foundation, Amsterdam, pages 194-204 (1967)) and antireserpine activity was expressed as relative potency (Amitriptyline = 1). LD50 was calculated by the Litchfield-Wilcoxon method. CNS depressant activity was defined by the ability of the compounds to cause neurological deficit as measured by a traction test (S. Courvoisier, R. Ducrot, L. Julou; "Psychotropic Drugs" ed. by S. Garattini, V. Ghetti, page 373 (1957)) and spontaneous motor activity. (Spontaneous motor activity was measured by an ANIMEX apparatus.) Anticonvulsant activity was determined by antagonism of electroshock induced tonic extensor [L. S. Goodman, M. Singh Grewal, W. C. Brown and E. A. Swinyard, J. Pharmacol, Exptal. Therap., 108, 168 (1953)]. Central anticholinergic effect was assessed by testing a tremorine induced tremor in mice [G. M. Everett, L. E. Bloucus and J. M. Sheppard, Science 124, 79 (1956)]. Results of these tests are summarized in Tables I and II, in which ED50 is defined as the dose of the test compounds which prevents 50% of each response.

[2] = Acute toxicity, LD50 (Litchfield-Wilcoxon method); format: in vivo; settings: for LD50: mouse, in vivo, ip
Experimental: as §1

[3] = system: spontaneous motor activity; experiment: CNS depressant activity: spontaneous motor activity (ANIMEX apparatus); format: in vivo, mice; settings: Mus musculus, ip, read-out: Spontaneous Motor Activity Depression ED50
Experimental: as §1, with “Therap., 108, 168 (1953)].” left out, “Results of these tests are summarized in Tables I and II, in which ED50 is defined as the dose of the test compounds which prevents 50% of each response.” left out

tremorine induced tremor = experiment: Central anticholinergic effect: tremorine induced tremor in mice; format: in vivo; settings: for ED50: Mus musculus, ip, read-out: Antitremorine Effect ED50
Experimental: as §1

[4] = system: neurological deficit (traction test); experiment: CNS depressant activity: muscle relaxant action (traction test); format: in vivo, mice; settings: for ED50: Mus musculus, ip, read-out: Muscle Relaxant Action ED50
Experimental: as §1

[5] = system: electroshock induced tonic extensor; experiment: Anticonvulsant activity: antagonism of electroshock induced tonic extensor; format: in vivo, mice; settings: Mus musculus, ip, read-out: Anticonvulsant Activity ED50
Experimental: as §1, with “Therap., 108, 168 (1953)].” left out, “Results of these tests are summarized in Tables I and II, in which ED50 is defined as the dose of the test compounds which prevents 50% of each response.” left out

[6] = intraperitoneal, mice, Litchfield-Wilcoxon, read-out: LD50

For `CN(C)CCCOc1ccccc1Oc1ccccc1` [2-(3-dimethylaminopropoxy) diphenyl ether hydrochloride, reference compound], which “Relative Potency (antireserpine activity, Amitriptyline = 1)” value (shortened to “Relative Potency”) [1] is on record?
Its value is 0.14.

For `CNCCCOc1ccccc1Sc1ccccc1` [2-(3-methylaminopropoxy) diphenyl sulfide hydrochloride], which “Relative Potency” value [1] is on record?
Its value is 0.60.

What about the LD50 [2, 6] of the same compound?
The LD50 was 135 mg/kg.

Which “Relative Potency” value [1] does the source give for `NCCCCOc1ccccc1Sc1ccccc1` [2-(4-aminobutoxy) diphenyl sulfide hydrochloride] here?
The value was 0.36.

Which results are given for `CN(C)CCCCOc1ccccc1Sc1ccccc1` [2-(4-dimethylaminobutoxy)-diphenyl sulfide hydrochloride]?
Relative Potency (antireserpine activity, Amitriptyline = 1) [1]: 0.70; LD50 [2, 6]: 130 mg/kg

Which results are given for `CNCCCCOc1ccccc1Sc1ccccc1` [2-(4-methylaminobutoxy) diphenyl sulfide hydrochloride]?
ED50 ([3]; ANIMEX, mice, i.p., CNS depressant activity): > 60 mg/kg; antireserpine activity (in words) ([1]; i.p., from Tables I and II): comparable to that of Amitriptyline; Relative Potency (antireserpine activity, Amitriptyline = 1) [1]: 0.90; ED50 (tremorine induced tremor; tremorine induced tremor, mice, i.p., central anticholinergic): 30 mg/kg; anticholinergic action (in words) (tremorine induced tremor; mice, i.p.): weak CNS depressant and anticholinergic action; toxicity (in words) ([2]; mice, i.p., from Tables I and II): low toxicity; LD50 [2]: 120 mg/kg; ED50 ([4]; traction test, mice, i.p., CNS depressant activity): 50 mg/kg; CNS depressant action (in words) ([4]; mice, i.p., traction test and spontaneous motor activity): weak; ED50 ([5]; electroshock, mice, i.p., dose which prevents 50% of response): > 60 mg/kg

For `c1ccc(Sc2ccccc2OCCCCN2CCOCC2)cc1` [2-(4-morpholinobutoxy) diphenyl sulfide hydrochloride], which “Relative Potency” value [1] is on record?
Its value is 0.38.

For `CN(C)CCCCCOc1ccccc1Sc1ccccc1` [2-(5-dimethylaminopentyloxy) diphenyl sulfide hydrochloride], which “Relative Potency” value [1] is on record?
The value was 0.15.

For `CN(C)CCC=C1c2ccccc2CCc2ccccc21` [Amitriptyline, reference compound], which ED50 [3] is on record?
Its ED50 is 18 mg/kg.

And the ED50 (tremorine induced tremor)?
The ED50 was 4 mg/kg.

What about the ED50 [4] of the same compound?
The ED50 was 15 mg/kg.

And the ED50 [5]?
Its ED50 is 16 mg/kg.
